Where a name gives a salt, the structure may show the parent alone. Read-outs that look alike come from different tables or passages of the source.
Key:
[1] = target: T1, unphosphorylated VEGF-R2Δ50 (FLVK) (Homo sapiens, UniProt P35968, DEL940-989/E990V); assay: VEGF-R2 coupled spectrophotometric assay, unphosphorylated construct (FLVK); assay type: biochemical; details: for inhibition at 0.05 µM: @ 50 nM, read-out: FLVK percent inhibition;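 for all read-outs here: Baculovirus-expressed cytosolic kinase domain, ADP formation linked via pyruvate kinase and lactate dehydrogenase to NADH oxidation, read as falling absorbance at 340 nm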
T1 construct: VEGF-R2Δ50 contains residues 806-939 and 990-1171; made in house; host or cells: baculovirus/insect cells
T1 sequence (P35968 with tags, fused parts or gaps DEL940-989/E990V limits assumed): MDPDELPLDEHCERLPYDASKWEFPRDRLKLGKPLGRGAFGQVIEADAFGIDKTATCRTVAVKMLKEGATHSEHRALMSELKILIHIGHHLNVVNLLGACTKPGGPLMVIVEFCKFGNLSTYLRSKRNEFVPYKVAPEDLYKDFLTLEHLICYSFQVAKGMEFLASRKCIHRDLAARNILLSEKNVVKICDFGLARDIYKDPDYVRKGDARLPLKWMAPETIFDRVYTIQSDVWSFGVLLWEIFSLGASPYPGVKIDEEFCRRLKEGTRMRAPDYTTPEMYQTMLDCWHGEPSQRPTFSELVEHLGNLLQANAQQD

[2] = system: human umbilical vein endothelial cells (HUVEC); assay: HUVEC proliferation assay (VEGF-stimulated, MTT); assay type: cell-based; details: Homo sapiens, read-out: HUVEC IC50
Procedure: This assay determines the ability of a test compound to inhibit the growth factor-stimulated proliferation of human umbilical vein endothelial cells (“HUVEC”). HUVEC cells (passage 3-4, Clonetics, Corp.) were thawed into EGM2 culture medium (Clonetics Corp) in T75 flasks. Fresh EGM2 medium was added to the flasks 24 hours later. Four or five days later, cells were exposed to another culture medium (F12K medium supplemented with 10% fetal bovine serum (FBS), 60 μg/ml endothelial cell growth supplement (ECGS), and 0.1 mg/ml heparin). Exponentially-growing HUVEC cells were used in experiments thereafter. Ten to twelve thousand HUVEC cells were plated in 96-well dishes in 100 μl of rich, culture medium (described above). The cells were allowed to attach for 24 hours in this medium. The medium was then removed by aspiration and 105 μl of starvation media (F12K+1% FBS) was added to each well. After 24 hours, 15 μl of test agent dissolved in 1% DMSO in starvation medium or this vehicle alone was added into each treatment well; the final DMSO concentration was 0.1%. One hour later, 30 μl of VEGF (30 ng/ml) in starvation media was added to all wells except those containing untreated controls; the final VEGF concentration was 6 ng/ml. Cellular proliferation was quantified 72 hours later by MTT dye reduction, at which time cells were exposed for 4 hours MTT (Promega Corp.). Dye reduction was stopped by addition of a stop solution (Promega Corp.) and absorbance at 595 λ was determined on a 96-well spectrophotometer plate reader.

[3] = system: lung cancer cells (line MV522); assay: Cancer cell proliferation (MV522) assay (MTT); assay type: cell-based; details: MV522
Procedure: The protocol for assessing cellular proliferation in cancer cells is similar to that used for assessments in HUVEC cells. Two thousand lung cancer cells (line MV522, acquired from American Tissue Cultural Collection) were seeded in growth media (RPMI1640 medium supplemented with 2 mM glutamine and 10% FBS). Cells are allowed to attach for 1 day prior to addition of test agents and/or vehicles. Cells are treated simultaneously with the same test agents used in the HUVEC assay. Cellular proliferation is quantified by MTT dye reduction assay 72 hours after exposure to test agents. The total length of the assay is 4 days vs. 5 for HUVEC cells because MV522 cells are not exposed to starvation medium.

[4] = target: T2, phosphorylated VEGF-R2Δ50 (FLVK-P) (Homo sapiens, UniProt P35968, DEL940-989/E990V); assay: VEGF-R2 coupled spectrophotometric assay, phosphorylated construct (FLVK-P); assay type: biochemical; details: for inhibition at 0.05 µM: @ 50 nM, read-out: FLVK-P percent inhibition
T2 construct: VEGF-R2Δ50 contains residues 806-939 and 990-1171; made in house; host or cells: baculovirus/insect cells
T2 sequence (P35968 with tags, fused parts or gaps DEL940-989/E990V limits assumed): as above
In short: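 Continuous PK/LDH-coupled spectrophotometric read (NADH loss at 340 nm) with 5–40 nM enzyme in 200 mM Hepes pH 7.5. Phosphorylated construct run at 1 mM ATP, 25 mM MgCl2, 5.1 mM poly(E4Y1); unphosphorylated at 3 mM ATP, 60 mM MgCl2 plus 2 mM MnCl2, 20 mM poly(E4Y1). Ki values derived from varied inhibitor concentrations.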

LCK tyrosine kinase = target: T3, LCK tyrosine kinase (Homo sapiens, UniProt P06239, C224D/P223M); assay: LCK spectrophotometric assay; assay type: biochemical; details: @ 1 μM; read-out: LCK-P percent inhibition;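 note: recombinant LCK kinase activity on poly(E4Y1), ADP formation coupled through PK/LDH to NADH oxidation, followed as absorbance loss at 340 nm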
T3 construct: starting from amino acid residue 223 to the end of the protein at residue 509; made in house; host or cells: insect cells
T3 sequence (P06239 223-509 P223M/C224D): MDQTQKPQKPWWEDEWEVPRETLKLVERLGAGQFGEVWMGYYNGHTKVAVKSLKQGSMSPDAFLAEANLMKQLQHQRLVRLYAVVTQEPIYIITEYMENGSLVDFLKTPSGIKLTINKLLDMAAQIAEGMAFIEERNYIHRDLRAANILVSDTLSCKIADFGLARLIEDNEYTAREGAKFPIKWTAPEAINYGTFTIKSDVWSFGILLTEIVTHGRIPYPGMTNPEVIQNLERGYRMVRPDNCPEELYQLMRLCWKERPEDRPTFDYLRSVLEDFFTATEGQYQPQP

Compound | melting point | IC50 [3] [nM] | Ki [4] [nM] | IC50 ([2]; HUVEC) [nM] | also measured
O=C(Nc1cccc(OCc2cccnc2)c1)N1CCCC1 [Example Y-1, 1-[3-(pyridin-3-ylmethoxy)phenylcarbamoyl]pyrrolidine] | 138 to 140 °C |  |  |  | inhibition at 0.05 µM [1]: 6%; IC50 ([2]; VEGF-stimulated HUVEC proliferation): > 700 nM
O=C(Nc1ccc(N2CCNCC2)c(C(F)(F)F)c1)c1ccc(F)c(OCc2cncc3ccccc23)c1 (as salt: hydrochloride) [Example R-15, 4-Fluoro-N-(4-piperazin-1-yl-3-trifluoromethyl-phenyl)-3-(isoquinolin-4-ylmethoxy)-benzamide] | 103 to 107 °C |  |  |  | 
O=C(Nc1cc(Cl)c(N2CCNCC2)c(Cl)c1)c1ccc(F)c(OCc2cccnc2)c1 [Example R-19, N-(3,5-Dichloro-4-piperazin-1-yl-phenyl)-4-fluoro-3-(pyridin-3-ylmethoxy)-benzamide] | 81 to 85 °C | 1700 |  | 64 | Ki [1]: 13.9 nM
Cc1cc(NC(=O)c2cccc(OCc3cnc(NNC(=O)OC(C)(C)C)c4ccccc34)c2)ccc1C(C)C [Example P-1, N′-{4-[3-(4-isopropyl-3-methyl-phenylcarbamoyl)-phenoxymethyl]-isoquinolin-1-yl}-hydrazinecarboxylic acid tert-butyl ester] | 125 to 129 °C |  |  |  | inhibition at 0.05 µM [4]: 4%
CC1(C)OC(C)(C)c2cc(NC(=O)c3cccc(OCc4cncc5ccccc45)c3)ccc21 [Example R-10, 3-(Isoquinolin-4-ylmethoxy)-N-(1,1,3,3-tetramethyl-1,3-dihydroisobenzofuran-5-yl)-benzamide] |  | > 10000 | 12.1 | 28 | Ki [1]: 6.9 nM; inhibition at 1 µM (LCK tyrosine kinase): 23%
Cc1cc(NC(=O)c2cccc(CCc3cccnc3)c2)ccc1C(C)C [Example U-2, N-(4-Isopropyl-3-methyl-phenyl)-3-(2-pyridin-3-yl-ethyl)-benzamide] | 143 to 144 °C | > 10000 | 12.4 | 100 | 
Cc1ccc2cc(NC(=O)c3cccc(SCc4cc(-c5ccccc5)n[nH]4)c3)ccc2n1 [Example F-2] | 99 to 101 °C | > 10000 | 14.7 | 650 | 
CC(=O)Oc1ccc(C(=O)Nc2cccc(OCc3cccnc3)c2)cc1C(C)(C)C [Example X-2, 4-Acetoxy-3-t-butyl-N-[3-(pyridin-3-ylmethoxy)phenyl]-benzamide] | 58 to 62 °C |  |  |  | Ki ([1]; unphosphorylated VEGF-R2 construct): 9.1 nM
COc1cc(NC(=O)c2cccc(CSc3ncnc4[nH]ncc34)c2)cc(C(F)(F)F)c1 [Example B-16, 3-[(1H-Pyrazolo[3,4-d]pyrimidin-4-yl)sulfanylmethyl]-N(3-trifluoromethyl-5-methoxyphenyl)-benzamide] |  | > 10000 | 15 | 370 | inhibition at 1 µM (LCK tyrosine kinase): 9%
COc1cc(NC(=O)c2cccc(CSc3cnccn3)c2)cc(OC)c1OC [Example A-1, N-(3,4,5-Trimethoxyphenyl)-3-[(pyrazin-2-yl)sulfanylmethyl]benzamide] | 112 to 119 °C |  | 785 |  | 
O=C(Nc1ccc2ncccc2c1)c1cccc(CSc2ncnc3[nH]ncc23)c1 [Example B-3, N-(Quinolin-6-yl)-3-[(1H-pyrazolo[3,4-d]pyrimidin-4-yl)sulfanylmethyl]benzamide] | 236 to 240 °C (dec.) |  | 406 |  | 
COC(=O)Nc1n[nH]c(SCc2cccc(C(=O)Nc3cc(OC)c(OC)c(OC)c3)c2)n1 [Example C-2, 3-[(5-(Methoxycarbonylamino)-2H-[1,2,4]triazol-3-yl)sulfanylmethyl]-N-(3,4,5-Trimethoxyphenyl)benzamide] | > 150 °C (dec.) |  |  |  | 
Cc1ccc2cc(NC(=O)c3cccc(OCc4ccc(N)nc4)c3)ccc2n1 [Example M-1, 3-(6-Aminopyridin-3-yl)methoxy-N-(2-methyl-quinolin-6-yl)-benzamide] | 189 to 192 °C |  | 52 |  | 

Continued, in another order:

melting point | IC50 [3] [nM] | Ki [4] [nM] | Compound | IC50 ([2]; HUVEC) [nM] | also measured
78 to 81 °C |  |  | Cc1cc(NC(=O)c2cccc(OCc3ccc(N)nc3)c2)ccc1C(C)C [Example L-1, 3-(6-Aminopyridin-3-yl)methoxy-N-(4-Isopropyl-3-methyl-phenyl)-benzamide] |  | 
76 to 78 °C |  |  | O=C(Nc1ccc(N2CCNCC2)c(C(F)(F)F)c1)c1ccc(F)c(OCc2cnc3ccccc3c2)c1 (as salt: hydrochloride) [Example R-17, 4-Fluoro-N-(4-piperazin-1-yl-3-trifluoromethyl-phenyl)-3-(quinolin-3-ylmethoxy)-benzamide] |  | 
98 to 101 °C | > 10000 |  | CC(=O)Nc1ccc(COc2cccc(C(=O)Nc3ccc(C(C)C)c(C)c3)c2)cn1 [Example N-2, 3-(6-Acetylaminopyridin-3-yl)methoxy-N-(4-Isopropyl-3-methyl-phenyl)-benzamide] | > 100 | inhibition at 0.05 µM [1]: 8%
102 to 105 °C |  | 1640 | Cc1ccc2cc(NC(=O)c3cccc(SCc4cnccn4)c3)ccc2n1 [Example D-2, N-(2-Methylquinolin-6-yl)-3-[(pyrazin-2-yl)methylsulfanyl]benzamide] |  | 
98 to 102 °C | > 10000 | 1.78 | Cc1ccc2cc(NC(=O)c3cccc(CCc4cc(Nc5ccccc5)n[nH]4)c3)ccc2n1 [Example G-2, N-(2-Methylquinolin-6-yl)-3-[2-(5-phenylamino-2H-pyrazol-3-yl)ethyl]benzamide] | 120 | 
58 to 62 °C |  |  | O=C(Nc1cccc(OCc2cccnc2)c1)N1CCOCC1 (as salt: salt) [Example Y-2, 4-[3-(pyridin-3-ylmethoxy)phenylcarbamoyl]morpholine] |  | 
133 to 135 °C |  | 1050 | Cc1ccc2cc(NC(=O)c3cccc(CSc4cnccn4)c3)ccc2n1 [Example A-6, N-(2-Methylquinolin-6-yl)-3-[(pyrazin-2-yl)sulfanylmethyl]benzamide] |  | 
> 165 °C (dec.) |  |  | COc1cc(NC(=O)c2cccc(CSc3nc(NC#N)n[nH]3)c2)cc(OC)c1OC [Example C-1, 3-[(5-Cyanoamino-2H-[1,2,4]triazol-3-yl)sulfanylmethyl]-N-(3,4,5-trimethoxyphenyl)benzamide] |  | 
125 to 131 °C |  |  | COc1cccc(/C=N/Nc2ncc(COc3cccc(C(=O)Nc4ccc(C(C)C)c(C)c4)c3)c3ccccc23)c1 [Example Q-1, N-(4-Isopropyl-3-methyl-phenyl)-3-{1-[N′-(3-methoxy-benzylidene)-hydrazino]-isoquinolin-4-ylmethoxy}-benzamide] | 100 to 300 | inhibition at 0.05 µM [4]: 17%
196 to 201 °C |  |  | COc1cc(NC(=O)c2cccc(CSc3nc(NC(C)=O)n[nH]3)c2)cc(OC)c1OC [Example C-3, N-(3,4,5-Trimethoxyphenyl)-3-[(5-acetylamino-2H-[1,2,4]triazol-3-yl)sulfanylmethyl]benzamide] |  | 
 | 9900 | 9.93 | O=C(Nc1cccc(OC(F)(F)F)c1)c1cccc(OCc2cncc3ccccc23)c1 [Example R-4, 3-(Isoquinolin-4-ylmethoxy)-N-(3-trifluoromethoxy-phenyl)-benzamide] | 88 | Ki [1]: 2.4 nM; inhibition at 1 µM (LCK tyrosine kinase): 28%
